Measurements as given in patent publication US10022342B2, “Methods and compositions for treating multiple myeloma” (Ohio State Innovation Foundation, priority 2015, dated 2018).
Values belong to the compound of their own block, whether it stands above or below them.

Columns and labels:
[1] = tested on: U266, RPMI, and MM1S cells; assay: Apoptosis (annexin) and necrosis (propidium iodide) by HDAC inhibitors, FIG. 15; assay type: cell-based, human
Method: Apoptosis was measured by annexin staining while cell necrosis was measured by propidium iodide staining.
CD44 surface expression was analyzed by staining cells with CD44-FITC antibody (BD Biosciences) for 30 min. in the dark, at room temperature. Apoptosis was measured by Annexin V-FITC and Propidium Iodide (PI) (Clontech) staining for 15 min. in the dark, at room temperature and data immediately acquired on a Beckman Coulter FC500 (Beckman Coulter) machine. Analysis was conducted using the FlowJo Software vX.0.7 (Tree Star Inc.). For the multiparametric analysis, the bone marrow samples were stained with CD38-PE (347687; BD Bioscience), CD138-APC (347193; BD Bioscience), CD45-ECD (A07784; Beckman Coulter), CD44-FITC (BD Bioscience) and AnnexinV-FITC (Clontech) for 30 minutes, washed with PBS and immediately analyzed with Gallios cytometer (Beckman Coulter).

MM.1S GFP/Luc+ cells = assay: NOD-SCID mice engrafted i.v. with MM.1S GFP/Luc+ cells, oral AR-42 + pomalidomide; assay type: in vivo; settings: 25 mg/kg each
Description: To investigate whether the oral combination treatment of AR-42 and pomalidomide improves the survival of mice engrafted with MM cells, 40 NOD-SCID mice were engrafted with 10×10^6 MM.1S GFP/Luc+ cells by intravenous injection (IV). Ten days later, mice with the same tumor burden (as calculated by luminescence) (FIG. 14C) were randomly divided into 4 treatment groups (10 mice per group): AR-42 alone, pomalidomide alone, AR-42+pomalidomide, and vehicle control (Ctrl, 8% DMSO in PBS). Mice were treated by oral administration (gavage) daily with pomalidomide (25 mg/kg) or Ctrl, and three times a week (Mon-Tues-Fri) with AR-42 (25 mg/kg) or Ctrl, until elimination criteria, including paralysis, extreme weight loss and dehydration, were reached.

MM cells = assay: IC50 concentrations of HDAC inhibitors in MM cells; assay type: cell-based; settings: Homo sapiens

Compound: O=C(CCCCCCC(=O)Nc1ccccc1)NO [SAHA, suberoylanilide hydroxamic acid, reference compound]
apoptosis (annexin staining) ([1]; 24 and 48 hours, 0.25, 0.5, and 1 μM): limited impact on apoptosis

Compound: Nc1cccc2c1C(=O)N(C1CCC(=O)NC1=O)C2=O (stereo not shown) [pomalidomide, reference compound]
median survival (MM.1S GFP/Luc+ cells): 42 days

IC50 (MM cells): 10 nM
Compound: Cc1[nH]c2ccccc2c1CCNCc1ccc(/C=C/C(=O)NO)cc1 [LBH, reference compound]
dose response curve ([1]; data not shown): No dose response curve could be obtained
